Assay results from US8663645B2, “Use of native peptides and their optimized derivatives for vaccination” (Vaxon Biotech, priority 2005, dated 2014).
Where “and” joins values, the source holds several entries; their conditions need not be identical. Equal entries are not always repeated. No end group written: not given here.

Columns and labels:
[1] = system: RMAS/HHD cells pulsed with MAGE-A248D9; experiment: Avidity of CTL lines for native MAGE-A248D9 (51Cr release); format: cell-based, HHD mice; details: MAGE-A248V9 primed spleen cells
Description: (§1) HHD mice were injected subcutaneously with 100 μg of nonamer peptides emulsified in incomplete Freund's adjuvant (IFA) in the presence of 150 μg of the I-Ab restricted HBVcore128 T-helper epitope. Spleen cells (5×10^7 cells in 10 ml) from immunized HHD mice were stimulated in vitro with peptide (10 μM) in RPMI1640+10% FCS for five days. The CTL lines were established by weekly re-stimulation in vitro with irradiated spleen cells in the presence of peptide and 50 U/ml IL-2 (Proleukin, Chiron Corp., Emeryville, Calif.).
(§2) Murine RMAS/HHD cells were used as targets for cytotoxicity as described (Tourdot, Scardino et al. 2000). Briefly, 2.5×10^3 51Cr-labeled targets were pulsed with increasing doses (0.00001-10 μM) of peptides at 37° C. for 60 min. Effector cells in 100 μl were then added and incubated at 37° C. for 4 hours. After incubation, 100 μl of supernatant were collected and radioactivity was measured in a gamma counter. The specific lysis was determined as: Lysis=(Experimental Release−Spontaneous Release)/(Maximal Release−Spontaneous Release). CTL avidity is defined as the peptide concentration that gives half the maximal lysis. […] In Vivo Tumor Protection Assay
HHD mice were immunized with the optimized MAGE-A248V9 peptide, corresponding to the cryptic MAGE-A248D9 (both described in WO03083124). Eleven days later, spleen cells from vaccinated mice were pooled and in vitro serially stimulated with 100 μM of either MAGE-A248V9 or the native cryptic MAGE-A248D9 peptides in the presence of 50 IU/ml of IL2. Stimulations were repeated every week. After the first, third and sixth in vitro stimulation, CTL lines were tested for their avidity for the native MAGE-A248D9 peptide in a classical ^51Cr release cytotoxicity assay (Table 6).

[2] = system: patients treated with TERT540; details: cited from earlier work
[3] = system: EL4/HHD tumor cells; experiment: In vivo tumor protection assay; parameters: species or system HHD mice; details: for Survival post-challenge / Survival post-challenge (days): individual mice
Description: HHD mice were vaccinated with 100 μg of peptide emulsified in IFA in the presence of 150 μg of the 1 Ab restricted HBVcore128 epitope once and then again two weeks later. One week after the second vaccination they were challenged subcutaneously with 2×10^4 EL4/HHD cells. Survival was recorded every two days.
HHD mice were vaccinated with the optimized cryptic TERT572Y and TERT988Y peptides and fifteen days later boosted with either the same optimized or the corresponding native cryptic peptide. Ten days after the boost, mice were challenged with EL4/HHD tumor cells and monitored for tumor growth and survival. Mice primed and boosted with the gp100154 peptide were used as negative controls (Table 8). 100% of control mice died by day 43 post-challenge.

[4] = Storage stability of vaccine peptides; format: physicochemical; details: more than two years of storage at −80° C.
Description: The vaccine consisted of optimized TERT572Y (YLFFYRKSV) (SEQ ID NO:2) and native TERT572 (RLFFYRKSV) (SEQ ID NO:1) peptides emulsified in Montanide ISA51 (Seppic Inc, France). The vaccine peptides were synthesized at the Faculty of Pharmacy, University of Patras (Greece) by means of solid-phase Fmoc/Bu chemistry. Quality assurance studies included confirmation of identity, sterility and purity (>95% for both peptides). […] Each peptide was prepared as a lyophilized powder for reconstitution and dilution in sterile water.

[5] = system: RMAS/HHD cells pulsed with TERT572; experiment: Avidity for TERT572 of CTL after in vivo prime and boost; details: individual HHD mice, 1st vaccination TERT572Y, 2nd vaccination the labelled peptide
Description: as §1, §2
HHD mice were vaccinated with the optimized cryptic TERT572Y peptide described above. Fifteen days later, they were boosted with either the same optimized or the native cryptic TERT572 peptide. […]

[6] = system: RMAS/HHD cells pulsed with TERT988; experiment: Avidity of CTL lines for native TERT988 (51Cr release); format: cell-based, HHD mice; details: TERT988Y primed spleen cells
Description: as §1, §2
HHD mice were immunized with the optimized cryptic TERT988Y peptide. Eleven days later, spleen cells from vaccinated mice were pooled and in vitro serially stimulated with 10 μM of either TERT988Y or the native cryptic TERT988 peptides in the presence of 50 IU/ml of IL2. Stimulations were repeated every week. After the first, third and sixth in vitro stimulation, CTL lines were tested for their avidity for the native TERT988 peptide in a classical ^51Cr release cytotoxicity assay (Table 5).

[7] = Phase I clinical study: toxicity (NCI Common Toxicity Criteria); format: in vivo, human
Description: Patients received a total of six subcutaneous vaccinations administered every 3 weeks. Peptides in 0.5 ml aqueous solution were emulsified with 0.5 ml Montanide ISA51 immediately before being injected. The optimized TERT572Y peptide was used for the first 2 vaccinations and the native TERT572 peptide for the remaining 4 vaccinations. Five dose levels of the peptides were studied; dose levels included 2, 3, 4, 5 and 6 mg of both peptides. Three patients were entered at each dose level. An additional 3 patients were planned to be enrolled at the dose level where a dose-limiting event was observed. Each patient received the same peptide dose for all six vaccinations. No other treatment with possible antitumor activity, i.e., chemotherapy, radiotherapy, hormonal therapy or administration of corticosteroids, was allowed during the course of vaccination.
Before entering the study, all patients were assessed by complete medical history, physical examination, and complete blood cell count with differential, serum chemistry and baseline measurements of relevant tumor markers. Moreover, measurable disease was determined by standard imaging procedures (chest x-ray, ultrasound, computed tomography scans of thorax and abdomen, magnetic resonance imaging (MRI) if indicated, and whole body bone scans). Toxicity during the vaccination protocol was evaluated by repeating the complete blood cell count weekly and by performing medical history, physical examination and serum chemistry every three weeks before each subsequent injection during the vaccination period and every month thereafter during the follow up. Toxicity was assessed and scored using the National Cancer Institute (NCI) Common Toxicity Criteria (Ajani, Welch et al. 1990). Dose-limiting toxicity (DLT) was assessed during the entire vaccination protocol and was defined as the occurrence of any of the following: grade 4 hematologic toxicity; grade 3-4 neutropenia with fever>38.2° C.; grade 3-4 non-hematologic toxicity; and any treatment delay because of toxicity. Dose escalation was discontinued and the DLT dose level was reached if at least 50% of the patients treated at that level develop a DLT. The MTD dose level was defined as the first level below the DLT dose level.

[8] = 1 in vitro stimulation with the labelled peptide
[9] = 3 in vitro stimulations with the labelled peptide
[10] = 6 in vitro stimulations with the labelled peptide
[11] = prime TERT572Y, boost the labelled peptide
[12] = 1 in vitro stimulation with the labelled peptide (10 μM)
[13] = prime TERT988Y, boost the labelled peptide

Substance: YLEYRQVPD (MAGE-A-248D9) [MAGE-A248D9]
- CTL avidity [1, 8]: 200 nM
- CTL avidity [1, 9]: 40 nM
- CTL avidity [1, 10]: 0.8 nM

Substance: TERT540: dominant peptide TERT540 (hTERT:540-548), literature vaccine (ILAKFLHWL; UniProt O14746 540-548, looked up, fragment)
- objective clinical response ([2]; 11 patients with renal cancer (Parkhurst, Riley et al. 2004)): none of 11 patients
- patients who responded to the vaccine ([2]; TERT540 emulsified in Monatanide (Parkhurst, Riley et al. 2004)): 50%

Substance: YLEYRQVPV (MAGE-A-248V9) [MAGE-A248V9]
- CTL avidity [1, 8]: 400 nM
- CTL avidity [1, 9]: 450 nM
- CTL avidity [1, 10]: 320 nM

Substance: KTWGQYWQV [Gp100154, reference compound]
- Survival post-challenge ([3]; prime Gp100154, boost the labelled peptide (negative control)): 39 days (2×) and 43 days and 41 days (2×) and 40 days
- control mice died by day 43 post-challenge ([3]; primed and boosted with gp100154): 100%

Substance: RLFFYRKSV (TERT-572) [TERT572, native cryptic peptide derived from TERT]
- purity or concentration after storage [4]: No decrease in purity or concentration
- CTL avidity [5]: 110 nM and 190 nM and 70 nM
- Survival post-challenge [3, 11]: 32 days and 35 days and 40 days
- Survival post-challenge (days) [3, 11]: 200+ days

Substance: YLQVNSLQTV (TERT-988Y1) [TERT988Y]
- CTL line avidity [6, 12]: 300 nM
- CTL line avidity [6, 9]: 500 nM
- CTL line avidity [6, 10]: 600 nM
- Survival post-challenge [3, 13]: 40 days (3×) and 43 days (2×)
- Survival post-challenge (days) [3, 13]: 200+ days

Substance: DLQVNSLQTV (TERT-988) [TERT988]
- CTL line avidity [6, 12]: 170 nM
- CTL line avidity [6, 9]: 70 nM
- CTL line avidity [6, 10]: 3 nM
- Survival post-challenge [3, 13]: 39 days and 40 days and 41 days
- Survival post-challenge (days) [3, 13]: 200+ days

Substance: YLFFYRKSV [TERT572Y, YLFFYRKSV]
- hematologic, renal, gastrointestinal or hepatic toxicity ([7]; TERT-expressing normal cells and tissues): no significant hematologic, renal, gastrointestinal or hepatic toxicity was observed
- MTD dose level ([7]; dose levels 2-6 mg): has not been reached
- Dose-limiting toxicity (DLT) ([7]; dose levels 2-6 mg, entire study): No DLT was observed
- signs of autoimmunity ([7]; even 24 months after the end of vaccination): none of the patients showed signs of autoimmunity
- Toxicity Grade I ([7]; individual patients): no (6×) and Anemia, local skin, fatigue, and anorexia and Thrombo/penia, local skin and Local skin (5×) and thrombocytopenia and Anemia, local skin (3×) and Anemia and Local skin, anemia
- Toxicity Grade II ([7]; individual patients): fatigue, nausea and no (16×) and anorexia, fatigue, and nausea and anorexia, fatigue
- Toxicity Grade III/IV ([7]; individual patients): no
- delayed toxicity ([7]; monthly follow up after completing or discontinuing vaccination): no signs or findings of delayed toxicity were observed
- grade 11 anorexia ([7]; of 19 patients): 2 patients
- grade 11 fatigue ([7]; of 19 patients): 3 patients
- grade 11 nausea ([7]; of 19 patients): 2 patients
- grade I anemia ([7]; of 19 patients): 6 patients
- grade I anorexia ([7]; of 19 patients): 1 patient
- grade I fatigue ([7]; of 19 patients): 1 patient
- grade I local skin reaction ([7]; of 19 patients): 11 patients
- grade I thrombocytopenia ([7]; of 19 patients): 2 patients
- patients who developed grade 11 toxicity ([7]; of 19 patients): Three
- patients who developed grade I toxicity ([7]; of 19 patients): Thirteen
